Reference: paper PMC10653547, “Synergistic effect of two antimicrobial peptides, BP203 and MAP-0403 J-2 with conventional antibiotics against colistin-resistant Escherichia coli and Klebsiella pneumoniae clinical isolates” (PLOS ONE, 2023)

Experiments:
[1] = test system: colistin-resistant K. pneumoniae clinical isolates; assay: Disk diffusion antimicrobial susceptibility testing (CLSI); as to Interpreted results of disk diffusion: key: R: resistant; I: intermediate; SDD: susceptible-dose dependent; S: sensitive; assay type: cell-based, Klebsiella pneumoniae; conditions: for %Resistance: ten K. pneumoniae isolates, disk diffusion
Method: (§1) Ten non-duplicate clinical isolates of colistin-resistant E. coli (EC) and ten non-duplicate clinical isolates of colistin-resistant K. pneumoniae (KP) were obtained from the bacterial repository of the Division of Infectious Diseases and Tropical Medicine, Department of Medicine, Faculty of Medicine Siriraj Hospital, Mahidol University. The species identification was conducted through standard biochemical tests. Antimicrobial susceptibility testing was carried out using the disk diffusion method following CLSI guidelines. Additionally, the assessment of colistin resistance in all isolates was performed by broth microdilution following CLSI recommendations. […] The amino acid sequences of BP203 and MAP-0403 J-2 were retrieved from previous studies. These peptides are BP100 and MAP-0403 analogs, respectively. […] Antibiotic disks and defibrinated sheep blood were obtained from Oxoid (Basingstoke, UK). All culture media were purchased from Becton Dickinson (Frankin Lakes, NJ, USA). All chemicals were obtained from Sigma-Aldrich (St. Louis, MO, USA).

[2] = test system: colistin-resistant E. coli clinical isolates; assay: as above; assay type: cell-based, Escherichia coli; conditions: for %Resistance: ten E. coli isolates, disk diffusion
Method: as §1

## CO[C@@]1(NC(=O)Cc2cccs2)C(=O)N2C(C(=O)O)=C(COC(N)=O)CS[C@@H]21 [FOX, cefoxitin]
[1]; KP-01
  Interpreted results of disk diffusion: R
[1]; KP-02
  Interpreted results of disk diffusion: R
[1]; KP-03
  Interpreted results of disk diffusion: R
[1]; KP-04
  Interpreted results of disk diffusion: R
[1]; KP-05
  Interpreted results of disk diffusion: R
[1]; KP-06
  Interpreted results of disk diffusion: R
[1]; KP-07
  Interpreted results of disk diffusion: R
[1]; KP-08
  Interpreted results of disk diffusion: R
[1]; KP-09
  Interpreted results of disk diffusion: R
[1]; KP-10
  Interpreted results of disk diffusion: R
[1]
  %Resistance: 100%
[2]; EC-01
  Interpreted results of disk diffusion: S
[2]; EC-02
  Interpreted results of disk diffusion: S
[2]; EC-03
  Interpreted results of disk diffusion: S
[2]; EC-04
  Interpreted results of disk diffusion: I
[2]; EC-05
  Interpreted results of disk diffusion: S
[2]; EC-06
  Interpreted results of disk diffusion: S
[2]; EC-07
  Interpreted results of disk diffusion: S
[2]; EC-08
  Interpreted results of disk diffusion: S
[2]; EC-09
  Interpreted results of disk diffusion: S
[2]; EC-10
  Interpreted results of disk diffusion: S
[2]
  %Resistance: 0%

## C[C@@H]1O[C@@H]1P(=O)(O)O [FOS, fosfomycin]
[1]; KP-01
  Interpreted results of disk diffusion: S
[1]; KP-02
  Interpreted results of disk diffusion: R
[1]; KP-03
  Interpreted results of disk diffusion: I
[1]; KP-04
  Interpreted results of disk diffusion: R
[1]; KP-05
  Interpreted results of disk diffusion: S
[1]; KP-06
  Interpreted results of disk diffusion: R
[1]; KP-07
  Interpreted results of disk diffusion: S
[1]; KP-08
  Interpreted results of disk diffusion: R
[1]; KP-09
  Interpreted results of disk diffusion: R
[1]; KP-10
  Interpreted results of disk diffusion: R
[1]
  %Resistance: 60%
[2]; EC-01
  Interpreted results of disk diffusion: S
[2]; EC-02
  Interpreted results of disk diffusion: S
[2]; EC-03
  Interpreted results of disk diffusion: S
[2]; EC-04
  Interpreted results of disk diffusion: R
[2]; EC-05
  Interpreted results of disk diffusion: S
[2]; EC-06
  Interpreted results of disk diffusion: S
[2]; EC-07
  Interpreted results of disk diffusion: S
[2]; EC-08
  Interpreted results of disk diffusion: S
[2]; EC-09
  Interpreted results of disk diffusion: S
[2]; EC-10
  Interpreted results of disk diffusion: S
[2]
  %Resistance: 10%

## C[C@@H](O)[C@H]1C(=O)N2C(C(=O)O)=C(S[C@@H]3CN[C@H](C(=O)Nc4cccc(C(=O)O)c4)C3)[C@H](C)[C@H]12 [ETP, ertapenem]
[1]; KP-01
  Interpreted results of disk diffusion: R
[1]; KP-02
  Interpreted results of disk diffusion: R
[1]; KP-03
  Interpreted results of disk diffusion: R
[1]; KP-04
  Interpreted results of disk diffusion: R
[1]; KP-05
  Interpreted results of disk diffusion: R
[1]; KP-06
  Interpreted results of disk diffusion: R
[1]; KP-07
  Interpreted results of disk diffusion: R
[1]; KP-08
  Interpreted results of disk diffusion: R
[1]; KP-09
  Interpreted results of disk diffusion: R
[1]; KP-10
  Interpreted results of disk diffusion: R
[1]
  %Resistance: 100%
[2]; EC-01
  Interpreted results of disk diffusion: S
[2]; EC-02
  Interpreted results of disk diffusion: S
[2]; EC-03
  Interpreted results of disk diffusion: S
[2]; EC-04
  Interpreted results of disk diffusion: S
[2]; EC-05
  Interpreted results of disk diffusion: S
[2]; EC-06
  Interpreted results of disk diffusion: S
[2]; EC-07
  Interpreted results of disk diffusion: S
[2]; EC-08
  Interpreted results of disk diffusion: S
[2]; EC-09
  Interpreted results of disk diffusion: S
[2]; EC-10
  Interpreted results of disk diffusion: S
[2]
  %Resistance: 0%

## CNC(C)C1CCC(N)C(OC2C(N)CC(N)C(OC3OCC(C)(O)C(NC)C3O)C2O)O1 (stereo not shown) [GM, gentamicin]
[1]; KP-01
  Interpreted results of disk diffusion: S
[1]; KP-02
  Interpreted results of disk diffusion: R
[1]; KP-03
  Interpreted results of disk diffusion: S
[1]; KP-04
  Interpreted results of disk diffusion: S
[1]; KP-05
  Interpreted results of disk diffusion: S
[1]; KP-06
  Interpreted results of disk diffusion: S
[1]; KP-07
  Interpreted results of disk diffusion: S
[1]; KP-08
  Interpreted results of disk diffusion: S
[1]; KP-09
  Interpreted results of disk diffusion: S
[1]; KP-10
  Interpreted results of disk diffusion: S
[1]
  %Resistance: 10%
[2]; EC-01
  Interpreted results of disk diffusion: R
[2]; EC-02
  Interpreted results of disk diffusion: S
[2]; EC-03
  Interpreted results of disk diffusion: R
[2]; EC-04
  Interpreted results of disk diffusion: R
[2]; EC-05
  Interpreted results of disk diffusion: R
[2]; EC-06
  Interpreted results of disk diffusion: R
[2]; EC-07
  Interpreted results of disk diffusion: S
[2]; EC-08
  Interpreted results of disk diffusion: R
[2]; EC-09
  Interpreted results of disk diffusion: R
[2]; EC-10
  Interpreted results of disk diffusion: R
[2]
  %Resistance: 80%

## NCC[C@H](O)C(=O)N[C@@H]1C[C@H](N)[C@@H](O[C@H]2O[C@H](CN)[C@@H](O)[C@H](O)[C@H]2O)[C@H](O)[C@H]1O[C@H]1O[C@H](CO)[C@@H](O)[C@H](N)[C@H]1O [AK, amikacin]
[1]; KP-01
  Interpreted results of disk diffusion: S
[1]; KP-02
  Interpreted results of disk diffusion: R
[1]; KP-03
  Interpreted results of disk diffusion: R
[1]; KP-04
  Interpreted results of disk diffusion: R
[1]; KP-05
  Interpreted results of disk diffusion: I
[1]; KP-06
  Interpreted results of disk diffusion: R
[1]; KP-07
  Interpreted results of disk diffusion: S
[1]; KP-08
  Interpreted results of disk diffusion: S
[1]; KP-09
  Interpreted results of disk diffusion: S
[1]; KP-10
  Interpreted results of disk diffusion: S
[1]
  %Resistance: 40%
[2]; EC-01
  Interpreted results of disk diffusion: S
[2]; EC-02
  Interpreted results of disk diffusion: S
[2]; EC-03
  Interpreted results of disk diffusion: S
[2]; EC-04
  Interpreted results of disk diffusion: S
[2]; EC-05
  Interpreted results of disk diffusion: S
[2]; EC-06
  Interpreted results of disk diffusion: S
[2]; EC-07
  Interpreted results of disk diffusion: S
[2]; EC-08
  Interpreted results of disk diffusion: S
[2]; EC-09
  Interpreted results of disk diffusion: S
[2]; EC-10
  Interpreted results of disk diffusion: S
[2]
  %Resistance: 0%

## CO/N=C(\C(=O)N[C@@H]1C(=O)N2C(C(=O)[O-])=C(C[N+]3(C)CCCC3)CS[C@H]12)c1csc(N)n1 [FEP, cefepime]
[1]; KP-01
  Interpreted results of disk diffusion: R
[1]; KP-02
  Interpreted results of disk diffusion: R
[1]; KP-03
  Interpreted results of disk diffusion: R
[1]; KP-04
  Interpreted results of disk diffusion: R
[1]; KP-05
  Interpreted results of disk diffusion: R
[1]; KP-06
  Interpreted results of disk diffusion: R
[1]; KP-07
  Interpreted results of disk diffusion: R
[1]; KP-08
  Interpreted results of disk diffusion: R
[1]; KP-09
  Interpreted results of disk diffusion: R
[1]; KP-10
  Interpreted results of disk diffusion: R
[1]
  %Resistance: 100%
[2]; EC-01
  Interpreted results of disk diffusion: R
[2]; EC-02
  Interpreted results of disk diffusion: R
[2]; EC-03
  Interpreted results of disk diffusion: R
[2]; EC-04
  Interpreted results of disk diffusion: R
[2]; EC-05
  Interpreted results of disk diffusion: SDD
[2]; EC-06
  Interpreted results of disk diffusion: S
[2]; EC-07
  Interpreted results of disk diffusion: R
[2]; EC-08
  Interpreted results of disk diffusion: SDD
[2]; EC-09
  Interpreted results of disk diffusion: R
[2]; EC-10
  Interpreted results of disk diffusion: R
[2]
  %Resistance: 70%

## CO/N=C(\C(=O)N[C@@H]1C(=O)N2C(C(=O)O)=C(CSc3nc(=O)c(=O)[nH]n3C)CS[C@H]12)c1csc(N)n1 [CRO, ceftriaxone]
[1]; KP-01
  Interpreted results of disk diffusion: R
[1]; KP-02
  Interpreted results of disk diffusion: R
[1]; KP-03
  Interpreted results of disk diffusion: R
[1]; KP-04
  Interpreted results of disk diffusion: R
[1]; KP-05
  Interpreted results of disk diffusion: R
[1]; KP-06
  Interpreted results of disk diffusion: R
[1]; KP-07
  Interpreted results of disk diffusion: R
[1]; KP-08
  Interpreted results of disk diffusion: R
[1]; KP-09
  Interpreted results of disk diffusion: R
[1]; KP-10
  Interpreted results of disk diffusion: R
[1]
  %Resistance: 100%
[2]; EC-01
  Interpreted results of disk diffusion: R
[2]; EC-02
  Interpreted results of disk diffusion: R
[2]; EC-03
  Interpreted results of disk diffusion: R
[2]; EC-04
  Interpreted results of disk diffusion: R
[2]; EC-05
  Interpreted results of disk diffusion: R
[2]; EC-06
  Interpreted results of disk diffusion: R
[2]; EC-07
  Interpreted results of disk diffusion: R
[2]; EC-08
  Interpreted results of disk diffusion: R
[2]; EC-09
  Interpreted results of disk diffusion: R
[2]; EC-10
  Interpreted results of disk diffusion: R
[2]
  %Resistance: 100%
